Results on 14 compounds are retold here after paper PMC3943433 (Journal of medicinal chemistry, 2013).

Like-named read-outs stand apart in the source and are kept apart here. A value given as a limit tells only on which side of the number the result lay.

In data set [1] the target is T1, SHV-1 β-lactamase (Klebsiella pneumoniae, UniProt P0AD64).
The target in data set [2] is T2, SHV K234R β-lactamase (Klebsiella pneumoniae, UniProt P0AD64, K230R). The experiment in a line: Far-UV circular dichroism and thermal denaturation in the presence of inhibitors. The note with it: for ΔHVH: K234R 10 µM with 50 µM inhibitor, van't Hoff plot; for effect on secondary structure (far UV CD): K234R 10 µM, 50 µM inhibitor.
Data set [3] concerns the target T2, SHV K234R β-lactamase. As to the kind of experiment: Ki by direct competition assay with nitrocefin. The format is biochemical. The note with it: for fold lower Ki for K234R relative to SHV-1: K234R vs SHV-1.
Data set [4] deals with T1, SHV-1 β-lactamase. It is filed as biochemical.
Data set [5] has as its target T2, SHV K234R β-lactamase. As to the kind of experiment: Steady-state kinetics with β-lactam substrates. The note with it: K234R relative to SHV-1, from kcat/Km (eq 3). The format is biochemical.
Data set [6] relates to E. coli DH10B expressing blaSHV K234X (other 16 amino acid substitutions). The experiment in a line: MIC by Mueller-Hinton agar dilution. It is filed as cell-based. The note with it: Escherichia coli, E. coli blaSHV K234X (other 16 substitutions); β-lactam alone.
Data set [7] concerns O=C(Cc1cccs1)N[C@@H]1C(=O)N2C(C(=O)O)=C(/C=C/c3ccc([N+](=O)[O-])cc3[N+](=O)[O-])CS[C@H]12. The experiment in a line: Steady-state kinetics with β-lactam substrates. It is filed as biochemical, Klebsiella pneumoniae. The note with it: other: SHV-1, substrate, 10 mM PBS pH 7.4, room temperature.
Data set [8] concerns CCN1CCN(C(=O)N[C@@H](C(=O)N[C@@H]2C(=O)N3[C@@H]2SC(C)(C)[C@@H]3C(=O)O)c2ccccc2)C(=O)C1=O. The experiment in a line: Steady-state kinetics with β-lactam substrates. It is filed as biochemical, Klebsiella pneumoniae. The note with it: other: SHV-1, substrate, 10 mM PBS pH 7.4, room temperature.
Data set [9] has as its system CC(=O)OCC1=C(C(=O)O)N2C(=O)[C@@H](NC(=O)Cc3cccs3)[C@H]2SC1. As to the kind of experiment: Steady-state kinetics with β-lactam substrates. It is filed as biochemical, Klebsiella pneumoniae. The note with it: other: SHV-1, substrate, 10 mM PBS pH 7.4, room temperature.
For the next data set, the system named is E. coli DH10B. It is filed as cell-based. The note with it: inhibitor in the presence of 50 µg/mL ampicillin.
The subject of data set [10] is E. coli DH10B expressing blaSHV K234R. It is filed as cell-based. The note with it: inhibitor in the presence of 50 µg/mL ampicillin.
Data set [11] concerns E. coli DH10B expressing blaSHV-1. The experiment in a line: MIC by Mueller-Hinton agar dilution. The format is cell-based. The note with it: E. coli blaSHV-1; inhibitor in the presence of 50 µg/mL ampicillin.
The test system of data set [12] is E. coli DH10B expressing blaSHV K234A. The format is cell-based. The note with it: inhibitor in the presence of 50 µg/mL ampicillin.
Where [13] appears, read: SHV-1 10 µM with 50 µM inhibitor, van't Hoff plot.

Take `O=C(Cc1cccs1)NCB(O)O` [Achiral Cephalothin BATSI]: the ΔHVH at SHV-1 β-lactamase [1] (setting [13]) is 160 kcal/mol; at SHV K234R β-lactamase [2], 100 kcal/mol. In addition, the “effect on secondary structure (far UV CD)” value (from here on “effect”) at SHV K234R β-lactamase [2] is “affect the secondary structure”.
With `N[C@@H](C(=O)N[C@@H](Cc1cccc(C(=O)O)c1)B(O)O)c1ccccc1` [Chiral Ampicillin BATSI], the ΔHVH on SHV-1 β-lactamase [1] (setting [13]) stood at 143 kcal/mol; at SHV K234R β-lactamase [2], 119 kcal/mol. Moreover, the “increase of melting temperature” value on SHV K234R β-lactamase [2] (K234R with inhibitor vs apo) amounted to 6.6 °C. The “fold lower Ki for K234R relative to SHV-1” value at SHV K234R β-lactamase [3] worked out at 23 fold.
As to `O=C(Cc1cccs1)N[C@@H](Cc1cccc(C(=O)O)c1)B(O)O` [Chiral Cephalothin BATSI], at SHV K234R β-lactamase [3] (K234R), the “fold difference in Ki, achiral vs chiral cephalothin BATSI” value is 5000 fold. The “fold lower Ki for K234R relative to SHV-1” value at SHV K234R β-lactamase [3] is 38 fold. Besides, the “fold lower Ki than the achiral BATSI” value at SHV-1 β-lactamase [4] worked out at 44 fold.
Take `O=C(O)[C@H]1/C(=C/CO)O[C@@H]2CC(=O)N21` [Clavulanate, clavulanate]: on SHV-1 β-lactamase [1], the “effect” value is recorded as “affects the secondary structure of both enzymes”, the ΔHVH came out at 113 kcal/mol and the ΔΔGu result is listed as “+0.28 kcal/mol”. For the same compound, at SHV K234R β-lactamase [2], the ΔHVH turned out to be 68 kcal/mol and the “effect” value is given as “affects the secondary structure of both enzymes”.
Take `O=C(Cc1cccs1)N[C@@H]1C(=O)N2C(C(=O)O)=C(/C=C/c3ccc([N+](=O)[O-])cc3[N+](=O)[O-])CS[C@H]12` [Nitrocefin, nitrocefin]: the ΔΔGcat result at SHV K234R β-lactamase [5] was “+0.70 kcal/mol”.
For `CC1(C)[C@H](C(=O)O)N2C(=O)C[C@H]2S1(=O)=O` [Sulbactam, sulbactam], at SHV-1 β-lactamase [1], the “effect” value was “not SHV-1”, the ΔHVH turned out to be 183 kcal/mol and the ΔΔGu result is reported as “+0.07 kcal/mol”. Besides, on SHV K234R β-lactamase [2], the “effect” value is “affect the secondary structure”.
Regarding `C[C@]1(Cn2ccnn2)[C@H](C(=O)O)N2C(=O)C[C@H]2S1(=O)=O` [Tazobactam, tazobactam], the values for the ΔHVH on SHV-1 β-lactamase [1] (setting [13]) and on SHV K234R β-lactamase [2] were 149 kcal/mol and 114 kcal/mol, respectively. For the same compound, the “effect” value at SHV-1 β-lactamase [1] (SHV-1 10 µM, 50 µM inhibitor) is reported as “not SHV-1”; on SHV K234R β-lactamase [2], “affect the secondary structure”.
Take `CC1(C)S[C@@H]2[C@H](NC(=O)[C@H](N)c3ccccc3)C(=O)N2[C@H]1C(=O)O` [amp, ampicillin]: in [6], the MIC is ≤ 4 µg/mL.
For the compound `CCN1CCN(C(=O)N[C@@H](C(=O)N[C@@H]2C(=O)N3[C@@H]2SC(C)(C)[C@@H]3C(=O)O)c2ccccc2)C(=O)C1=O` [pip, piperacillin], in data set [6], the MIC is ≤ 8 µg/mL. In addition, on SHV K234R β-lactamase [5], the ΔΔGcat result was “+0.33 kcal/mol”.
For the compound `CC(=O)OCC1=C(C(=O)O)N2C(=O)[C@@H](NC(=O)Cc3cccs3)[C@H]2SC1` [thin, cephalothin], the ΔΔGcat entry on SHV K234R β-lactamase [5] is “+1.00 kcal/mol”.
With “SHV-1 β-lactamase (Klebsiella pneumoniae)”, in data set [7], the Km stood at 24.7 ± 5 µM, the turnover number (kcat) worked out at 348 ± 21.5 s⁻¹ and the kcat/Km was found to be 1.41e+07 ± 220000 M⁻¹ s⁻¹. For the same compound, in [8], the Km was 74.6 ± 11.7 µM, the kcat is 1180 ± 65 s⁻¹ and the kcat/Km came out at 1.58e+07 ± 600000 M⁻¹ s⁻¹. In addition, in data set [9], the Km was 48.9 ± 11.2 µM, the kcat was 42.6 ± 3.4 s⁻¹ and the kcat/Km was determined as 870000 ± 300000 M⁻¹ s⁻¹.
As for ampicillin/clavulanate [amp/ clav], the MIC in the data set with E. coli DH10B is on record as <0.06 µg/mL; in data set [10] it was 16 µg/mL; in data set [11] it was 4 µg/mL; in data set [12], <0.06 µg/mL.
Turning to ampicillin/sulbactam [amp/ sul], the MIC with E. coli DH10B is recorded as <0.06 µg/mL; in data set [10], 64 µg/mL; in data set [11], 512 µg/mL; in [12] it was <0.06 µg/mL.
Consider ampicillin/tazobactam [amp/ tazo], for which the MIC was <0.06 µg/mL in the data set with E. coli DH10B, 16 µg/mL in data set [10], 128 µg/mL in data set [11] and <0.06 µg/mL in [12].
